Laboratory results taken from patent publication US12077534B2, “Aza-heterobicyclic inhibitors of MAT2A and methods of use for treating cancer” (Les Laboratoires Servier SAS, priority 2018, dated 2024).

Experiments:
[1] = system: MAT2A activity (SAM) in HCT116 cells with deleted MTAP gene; assay: Cellular assay of target engagement (SAM) by LC-MS/MS; format: cell-based; settings: Homo sapiens, HCT-116; HCT116 MTAP −/−, 72 hrs; read-out: Cell 72 h SAM Inhibition (MTAP −/−)
Method in brief: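 HCT116 MTAP-deleted cells treated with 10-point 3-fold DMSO serial dilutions of compound for 72 hrs at 37° C. Cells lysed in cold 80% methanol/acetic acid extraction buffer with d3-SAM internal standard; SAM quantified by LC-MS/MS (MRM m/z 399.2→250.1).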

[2] = target: T1, MAT2A homodimer (Homo sapiens, UniProt P31153); assay: MAT2A biochemical assay (phosphate release, PiColorLock Gold); settings: recombinant MAT2A homodimer, 60 min pre-incubation, 25° C.; read-out: Enzyme Inhibition
T1 construct: inferred from Ni sepharose purification and imidazole elution; made in house; host or cells: SF9 insect cells, recombinant baculovirus (Bac to Bac, pFASTBAC1)
Method in brief: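 Baculovirus/Sf9-expressed, Ni-purified MAT2A homodimer (4 µg/mL in pH 8.0 Tris/KCl/MgCl2 buffer) preincubated 60 min at 25 °C with compound (2% DMSO final). Substrate mix of 500 µM ATP and 400 µM L-methionine added; 60 min at 25 °C; released phosphate quantified colorimetrically against a phosphate standard curve.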

[3] = system: HCT116 MTAP−/−; assay: Inhibition of cellular proliferation (Cell Titer Glo), HCT116 MTAP-/-; format: cell-based; settings: Homo sapiens, HCT-116, 96 h, 4 days, read-out: 4 Day Relative Growth Inhibition (MTAP −/−)
Method in brief: (§1)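 Isogenic HCT116 MTAP+/+ and MTAP−/− cells treated 24 h after plating with 10-point 3-fold dilutions, then grown 4 days at 37 °C/5% CO2. ATP content read by Cell Titer Glo luminescence, blank-subtracted and normalized to 0.2% DMSO control, plotted as percent proliferation change versus log molar concentration.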

[4] = system: HCT116 MTAP+/+; assay: Inhibition of cellular proliferation (Cell Titer Glo), HCT116 MTAP+/+; format: cell-based; settings: Homo sapiens, HCT-116, 96 h, 4 days, read-out: 4 Day Relative Growth Inhibition (MTAP +/+)
Method in brief: as §1

T1 sequence (P31153 whole entry): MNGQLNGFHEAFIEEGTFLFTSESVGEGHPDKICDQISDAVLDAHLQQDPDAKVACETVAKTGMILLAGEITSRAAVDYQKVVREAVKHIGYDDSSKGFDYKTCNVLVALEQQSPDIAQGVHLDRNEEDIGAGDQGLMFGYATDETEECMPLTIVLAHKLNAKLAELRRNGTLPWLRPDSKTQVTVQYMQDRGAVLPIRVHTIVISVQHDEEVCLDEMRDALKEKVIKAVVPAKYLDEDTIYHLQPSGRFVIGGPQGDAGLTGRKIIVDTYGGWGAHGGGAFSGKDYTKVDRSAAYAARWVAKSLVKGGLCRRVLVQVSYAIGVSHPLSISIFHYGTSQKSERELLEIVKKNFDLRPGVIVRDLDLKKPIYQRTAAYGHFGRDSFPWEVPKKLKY

IC50 [1]	IC50 [2]	IC50 [3]	IC50 [4]	SMILES
100 to 1000 nM	< 100 nM	< 100 nM	≥ 1000 nM	Cn1cc2cc(-n3nc4cc(F)c(OCC(F)F)nc4c(-c4ccc(OC(F)F)cc4)c3=O)ccc2n1 [Example 194, 6-(2,2-difluoroethoxy)-4-(4-(difluoromethoxy)phenyl)-7-fluoro-2-(2-methyl-2H-indazol-5-yl)pyrido[3,2-c]pyridazin-3(2H)-one]
< 100 nM	< 100 nM	≥ 1000 nM	≥ 1000 nM	CCOc1nc2c(-c3ccc(OC(F)F)cc3)c(=O)n(-c3ccc4nn(C)cc4c3)nc2cc1F [Example 195]
< 100 nM	< 100 nM	< 100 nM	≥ 1000 nM	CCNc1nc2c(-c3ccc(OC(F)F)cc3)c(=O)n(-c3ccc4nn(C)cc4c3)nc2cc1F [Example 196]
< 100 nM	< 100 nM	< 100 nM	≥ 1000 nM	Cn1cc2cc(-n3nc4cc(F)c(NCC(F)(F)F)nc4c(-c4ccc(OC(F)F)cc4)c3=O)ccc2n1 [Example 197]
< 100 nM	< 100 nM	< 100 nM	≥ 1000 nM	CCOc1ccc2nn(-c3ccc4nn(C)cc4c3)c(=O)c(-c3ccc(Br)cc3)c2n1 [Example 198, 4-(4-bromophenyl)-6-ethoxy-2-(2-methyl-2H-indazol-5-yl)pyrido[3,2-c]pyridazin-3(2H)-one]
< 100 nM	< 100 nM	< 100 nM	≥ 1000 nM	CC(C)Oc1ccc2nn(-c3ccc4nn(C)cc4c3)c(=O)c(-c3ccc(Br)cc3)c2n1 [Example 199, 4-(4-bromophenyl)-6-isopropoxy-2-(2-methyl-2H-indazol-5-yl)pyrido[3,2-c]pyridazin-3(2H)-one]
< 100 nM	< 100 nM	< 100 nM	≥ 1000 nM	Cn1cc2cc(-n3nc4ccc(OCC(F)F)nc4c(-c4ccc(Br)cc4)c3=O)ccc2n1 [Example 200, 4-(4-bromophenyl)-6-(2,2-difluoroethoxy)-2-(2-methyl-2H-indazol-5-yl)pyrido[3,2-c]pyridazin-3(2H)-one]
< 100 nM	< 100 nM	< 100 nM	≥ 1000 nM	O=c1c(-c2ccc(Br)cc2)c2nc(OCC(F)F)ccc2nn1-c1ccc2ncsc2c1 [Example 201, 2-(benzo[d]thiazol-6-yl)-4-(4-bromophenyl)-6-(2,2-difluoroethoxy)pyrido[3,2-c]pyridazin-3(2H)-one]
< 100 nM	< 100 nM	< 100 nM	≥ 1000 nM	CC(C)Oc1ccc2nn(-c3ccc4ncsc4c3)c(=O)c(-c3ccc(Br)cc3)c2n1 [Example 202, 2-(benzo[d]thiazol-6-yl)-4-(4-bromophenyl)-6-isopropoxypyrido[3,2-c]pyridazin-3(2H)-one]
< 100 nM	< 100 nM	< 100 nM	100 to 1000 nM	CN(C)c1c2cc(-n3nc4ccc(OCC(F)F)nc4c(-c4ccc(OC(F)F)cc4)c3=O)ccc2nn1C [Example 203, 6-(2,2-difluoroethoxy)-4-(4-(difluoromethoxy)phenyl)-2-(3-(dimethylamino)-2-methyl-2H-indazol-5-yl)pyrido[3,2-c]pyridazin-3(2H)-one]
< 100 nM	< 100 nM	< 100 nM	≥ 1000 nM	CCCc1ccc2nn(-c3ccc4nn(C)cc4c3)c(=O)c(-c3ccc(OC(F)F)cc3)c2n1 [Example 205, 4-(4-(difluoromethoxy)phenyl)-2-(2-methyl-2H-indazol-5-yl)-6-propylpyrido[3,2-c]pyridazin-3(2H)-one]
100 to 1000 nM	< 100 nM	100 to 1000 nM	≥ 1000 nM	Cn1cc2cc(-n3nc4ccc(OCC(F)F)nc4c(C4CCCCC4)c3=O)ccc2n1 [Example 206, 4-cyclohexyl-6-(2,2-difluoroethoxy)-2-(2-methyl-2H-indazol-5-yl)pyrido[3,2-c]pyridazin-3(2H)-one]
< 100 nM	< 100 nM	100 to 1000 nM	≥ 1000 nM	Cn1cc2cc(-n3nc4ccc(OCC(F)F)nc4c(-c4ccc(O)cc4)c3=O)ccc2n1 [Example 207, 6-(2,2-difluoroethoxy)-4-(4-hydroxyphenyl)-2-(2-methyl-2H-indazol-5-yl)pyrido[3,2-c]pyridazin-3(2H)-one]
< 100 nM	< 100 nM	< 100 nM	100 to 1000 nM	CCc1c2cc(-n3nc4ccc(OCC(F)F)nc4c(-c4ccc(OC(F)F)cc4)c3=O)ccc2nn1C [Example 208, 6-(2,2-difluoroethoxy)-4-(4-(difluoromethoxy)phenyl)-2-(3-ethyl-2-methyl-2H-indazol-5-yl)pyrido[3,2-c]pyridazin-3(2H)-one]
< 100 nM	< 100 nM	< 100 nM	≥ 1000 nM	Cn1cc2cc(-n3nc4c(CO)cc(OCC(F)F)nc4c(-c4ccc(OC(F)F)cc4)c3=O)ccc2n1 [Example 209, 6-(2,2-difluoroethoxy)-4-(4-(difluoromethoxy)phenyl)-8-(hydroxymethyl)-2-(2-methyl-2H-indazol-5-yl)pyrido[3,2-c]pyridazin-3(2H)-one]
< 100 nM	< 100 nM	100 to 1000 nM	≥ 1000 nM	Cn1cc2cc(-n3nc4c(C(F)F)cc(OCC(F)F)nc4c(-c4ccc(OC(F)F)cc4)c3=O)ccc2n1 [Example 210, 6-(2,2-difluoroethoxy)-4-(4-(difluoromethoxy)phenyl)-8-(difluoromethyl)-2-(2-methyl-2H-indazol-5-yl)pyrido[3,2-c]pyridazin-3(2H)-one]
100 to 1000 nM	< 100 nM	100 to 1000 nM	≥ 1000 nM	CN(C)Cc1cc(OCC(F)F)nc2c(-c3ccc(OC(F)F)cc3)c(=O)n(-c3ccc4nn(C)cc4c3)nc12 [Example 211, 6-(2,2-difluoroethoxy)-4-(4-(difluoromethoxy)phenyl)-8-((dimethylamino)methyl)-2-(2-methyl-2H-indazol-5-yl)pyrido[3,2-c]pyridazin-3(2H)-one]
< 100 nM	< 100 nM	< 100 nM	100 to 1000 nM	Cn1cc2cc(-n3nc4c(N)cc(OCC(F)F)nc4c(-c4ccc(OC(F)F)cc4)c3=O)ccc2n1 [Example 212, 8-amino-6-(2,2-difluoroethoxy)-4-(4-(difluoromethoxy)phenyl)-2-(2-methyl-2H-indazol-5-yl)pyrido[3,2-c]pyridazin-3(2H)-one]
> 1000 nM	100 to 1000 nM	≥ 1000 nM	≥ 1000 nM	C#Cc1c(=O)n(-c2ccc3nn(C)cc3c2)nc2ccc(OCC(F)F)nc12 [Example 214, 6-(2,2-difluoroethoxy)-4-ethynyl-2-(2-methyl-2H-indazol-5-yl)pyrido[3,2-c]pyridazin-3(2H)-one]
> 1000 nM	< 100 nM	100 to 1000 nM	≥ 1000 nM	Cn1cc2cc(-n3nc4ccc(OCC(F)F)nc4c(C#Cc4cc[nH]n4)c3=O)ccc2n1 [Example 215, 4-((1H-pyrazol-3-yl)ethynyl)-6-(2,2-difluoroethoxy)-2-(2-methyl-2H-indazol-5-yl)pyrido[3,2-c]pyridazin-3(2H)-one]
< 100 nM	< 100 nM	< 100 nM	100 to 1000 nM	CCOc1ccc2nn(-c3ccc4nn(C)cc4c3)c(=O)c(-c3ccc(OC(F)F)cc3)c2n1 [Example 217, 4-(4-(difluoromethoxy)phenyl)-6-ethoxy-2-(2-methyl-2H-indazol-5-yl)pyrido[3,2-c]pyridazin-3(2H)-one]
